Source: PMC2898634 (Chemical Communications (Cambridge, England), 2009)

How the values were obtained:
IP3R = conditions: cited from earlier work
[1] = target: IP3R1 with R504 mutated to glutamine (Rattus norvegicus, UniProt P29994, R504Q); test: Ca2+ release in cell line expressing only IP3R1 with R504 mutated to glutamine; type: cell-based
Sequence of IP3R1 with R504 mutated to glutamine (P29994 whole entry R504Q): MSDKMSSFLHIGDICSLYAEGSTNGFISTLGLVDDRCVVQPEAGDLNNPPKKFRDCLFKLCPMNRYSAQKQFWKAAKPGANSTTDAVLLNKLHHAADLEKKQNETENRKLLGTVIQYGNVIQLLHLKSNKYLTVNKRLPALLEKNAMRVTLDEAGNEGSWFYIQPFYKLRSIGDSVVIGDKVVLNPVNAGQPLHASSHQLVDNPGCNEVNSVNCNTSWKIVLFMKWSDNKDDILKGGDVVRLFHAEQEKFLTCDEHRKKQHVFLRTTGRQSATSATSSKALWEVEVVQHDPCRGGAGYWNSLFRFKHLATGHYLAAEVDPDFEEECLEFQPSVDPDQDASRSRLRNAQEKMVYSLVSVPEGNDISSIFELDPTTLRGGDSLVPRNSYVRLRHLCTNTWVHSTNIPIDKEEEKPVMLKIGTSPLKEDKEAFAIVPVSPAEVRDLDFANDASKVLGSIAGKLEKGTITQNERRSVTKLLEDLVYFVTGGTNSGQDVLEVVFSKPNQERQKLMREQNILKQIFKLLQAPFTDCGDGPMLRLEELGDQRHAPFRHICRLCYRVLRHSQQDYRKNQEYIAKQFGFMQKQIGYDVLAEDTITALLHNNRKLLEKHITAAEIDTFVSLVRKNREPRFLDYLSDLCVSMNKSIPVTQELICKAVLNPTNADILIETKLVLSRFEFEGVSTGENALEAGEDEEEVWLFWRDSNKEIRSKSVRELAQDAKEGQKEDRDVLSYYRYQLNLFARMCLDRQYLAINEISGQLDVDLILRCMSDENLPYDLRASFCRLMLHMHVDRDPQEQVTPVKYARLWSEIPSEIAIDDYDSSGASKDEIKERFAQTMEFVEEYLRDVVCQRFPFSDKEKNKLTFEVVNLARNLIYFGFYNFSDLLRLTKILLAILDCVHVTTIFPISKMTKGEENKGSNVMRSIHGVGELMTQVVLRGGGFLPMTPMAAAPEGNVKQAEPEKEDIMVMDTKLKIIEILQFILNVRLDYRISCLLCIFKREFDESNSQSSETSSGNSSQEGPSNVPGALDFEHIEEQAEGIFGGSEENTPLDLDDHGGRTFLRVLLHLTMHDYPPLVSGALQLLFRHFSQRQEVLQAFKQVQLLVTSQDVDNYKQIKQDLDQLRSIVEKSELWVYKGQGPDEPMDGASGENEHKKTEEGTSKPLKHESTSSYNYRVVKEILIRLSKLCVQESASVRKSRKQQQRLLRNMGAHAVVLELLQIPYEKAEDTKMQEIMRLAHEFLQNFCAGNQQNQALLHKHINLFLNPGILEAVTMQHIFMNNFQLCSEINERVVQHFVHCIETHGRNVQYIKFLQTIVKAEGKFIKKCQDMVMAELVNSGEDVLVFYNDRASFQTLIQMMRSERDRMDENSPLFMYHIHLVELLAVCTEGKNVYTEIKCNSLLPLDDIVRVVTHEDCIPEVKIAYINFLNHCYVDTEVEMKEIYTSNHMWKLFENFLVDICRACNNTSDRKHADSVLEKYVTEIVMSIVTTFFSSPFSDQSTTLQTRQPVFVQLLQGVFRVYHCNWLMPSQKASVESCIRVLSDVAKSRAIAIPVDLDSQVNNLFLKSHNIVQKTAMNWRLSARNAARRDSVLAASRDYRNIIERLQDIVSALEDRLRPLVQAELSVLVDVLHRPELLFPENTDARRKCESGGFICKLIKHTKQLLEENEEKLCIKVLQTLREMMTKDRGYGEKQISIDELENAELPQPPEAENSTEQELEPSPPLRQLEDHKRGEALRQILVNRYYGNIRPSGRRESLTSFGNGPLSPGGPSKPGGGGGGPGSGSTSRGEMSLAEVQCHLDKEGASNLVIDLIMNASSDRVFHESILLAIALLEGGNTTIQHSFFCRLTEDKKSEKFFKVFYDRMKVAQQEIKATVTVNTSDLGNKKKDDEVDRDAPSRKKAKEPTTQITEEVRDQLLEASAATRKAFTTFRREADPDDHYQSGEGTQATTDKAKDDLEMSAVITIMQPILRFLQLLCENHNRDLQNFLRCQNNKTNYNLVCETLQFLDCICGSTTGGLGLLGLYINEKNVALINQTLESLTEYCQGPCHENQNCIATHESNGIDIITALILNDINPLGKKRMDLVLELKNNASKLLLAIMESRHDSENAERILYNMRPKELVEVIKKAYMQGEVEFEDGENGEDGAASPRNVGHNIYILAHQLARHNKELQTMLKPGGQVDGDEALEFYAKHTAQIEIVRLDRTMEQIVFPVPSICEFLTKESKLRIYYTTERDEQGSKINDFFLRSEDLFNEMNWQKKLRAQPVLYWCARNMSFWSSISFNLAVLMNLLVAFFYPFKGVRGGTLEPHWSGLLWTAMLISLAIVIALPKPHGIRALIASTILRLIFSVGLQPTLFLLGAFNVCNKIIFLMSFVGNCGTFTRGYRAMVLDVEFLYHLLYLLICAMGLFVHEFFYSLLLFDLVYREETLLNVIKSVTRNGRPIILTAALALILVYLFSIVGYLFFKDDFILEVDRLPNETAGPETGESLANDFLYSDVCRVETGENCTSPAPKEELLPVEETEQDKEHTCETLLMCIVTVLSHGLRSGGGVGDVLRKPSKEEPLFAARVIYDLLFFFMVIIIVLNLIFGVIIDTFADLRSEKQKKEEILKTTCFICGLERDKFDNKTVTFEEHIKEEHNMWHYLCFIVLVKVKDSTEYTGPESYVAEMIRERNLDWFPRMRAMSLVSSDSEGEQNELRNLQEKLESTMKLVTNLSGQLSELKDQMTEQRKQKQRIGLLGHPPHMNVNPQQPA

SMILES | potency relative to IP3 (IP3R) | potency relative to IP3 at the mutated receptor [1] | change of EC50 at mutant IP3R relative to IP3R1 ([1]; printed as EC50 reduced) [fold] | activity at IP3R (result in words) (IP3R)
Nc1ncnc2c1ncn2[C@@H]1O[C@H](CO)[C@@H](O[C@H]2O[C@H](CO)[C@@H](OP(=O)(O)O)[C@H](OP(=O)(O)O)[C@H]2O)[C@H]1OP(=O)(O)O [AdA, adenophostin A] | at least ten times more potent than IP3 | only equipotent with IP3 | 434 | –
O=P(O)(O)O[C@@H]1[C@@H](O)[C@H](OP(=O)(O)O)[C@H](O)[C@H](O)[C@H]1O [Ins(1,5)P2] | – | – | – | inactive
